Test system: C. trachomatis
Experiment: C. trachomatis inclusion body formation in HeLa 229 cells after pre-incubation with single catechins (Example 2)
Format: cell-based, Chlamydia trachomatis
Conditions: incubated for 90 minutes at 37° C.
Method: As test Chlamydia was used C. trachomatis strain. Chlamydia capable of forming 10^4 inclusion bodies was incubated at 37° C. for 90 minutes in a SPG solution containing (−)-epicatechin gallate or (−)-epigallocatechin gallate in various concentratIons. After completion of the incubation, each solution was inoculated onto Hela 229 cell cultivated by monolayer culture and adsorbed by centrifugation at 1,500 rpm for 60 minutes. Thereafter, the inoculum was removed and culture medium for Chlamydia (Eagle Minimum Essential Culture Medium containing 1 μg/ml cycloheximide) was added and cultivation was performed at 37° C. for 72 hours. After completion of cultivation, the culture medium was removed and the cells were fixed with methanol and then stained with FITC-labeled anti-C. trachomatis monoclonal antibody, followed by counting the number of inclusion bodies of C. trachomatis.

Row | Compound | concentration that completely inhibited the growth of C. trachomatis [mg/mL]
1 | O=C(O[C@@H]1Cc2c(O)cc(O)cc2O[C@@H]1c1ccc(O)c(O)c1)c1cc(O)c(O)c(O)c1 [(−)-epicatechin gallate] | 0.8
2 | (−)-epigallocatechin gallate | 1.6
